In US6331565A, “Dicaffeoylquinic acid for treating hepatitis B and the diseases associated with retrovirus, and the new caffeoylquinic acid derivatives” (Institute of Radiation Medicine Academy of Military Medical …, priority 1996, dated 2001):
Like-named read-outs stand apart in the source and are kept apart here.

How the values were obtained:
HIV-1 = experiment: microbe, parasite or virus in culture; conditions: Human immunodeficiency virus 1, MT4, in Homo sapiens, 168 h
Description: A human T-cell leukemia cell line. MT4 cells, was used in this study. It was maintained in RPMI-1640 medium supplemented with 10% FCS. 100 U/ml of penicillin, and 100 μg/ml of streptomycin at 37° C. in a humidified atmosphere of 5% CO2. Cell cultures were split into fresh medium every 4 days.
HIV-1 virus was propagated in MT4 cells. The cell-free supernatants of HIV-1 infected MT4 cell culture were used as virus stocks and frozen at -80° C. until used. The 50% tissue culture infected dose (TCID50) of the cell-free virus stock was determined by end-point titration with MT4 cells in 96-well microdilution plates.
After 4 h, 100 μl of solvent (10% Triton X-100 and 0.4% HCl isopropanol)was added to cultures to solubilizes formazan. After an overnight incubation, the absorbency of each well was measured using a microplate reader (Bio-Rad, model 450) at 560 nm.
(§1) MT4 cells in culture were counted by trypan blue exclusion method. The MT4 cells suspended in a small volume of RPMI-1640 medium without FCS and infected with HIV-1 at 200 TCID50 viruses per 10^6 cells. The mixture of MT4 cells and virus was subsequently incubated at 37° C. in a humidified atmosphere of 5% CO2 for 1 hr to allow virus to adsorbed to cells. Unabsorbed viruses were then removed by washing one with […] of the fresh medium and centrifuged at 1000 rpm for ten minutes. The cells were suspended in the medium and distributed into 12-well microculture plates (10^6 cells/3 ml/well). […] After 4-day incubation at 37° C. in a humidified atmosphere containing 5% CO2 the medium was aspirated and the fresh medium containing the same concentration of drug was added.
After 7-day incubation the viable cells was evaluated by MTT method as described above.

HIV-1 RT = system: HIV-1 RT
Description: as §1
The presence of HIV-1 RT in the supernatants of infected, drug-treated and infected, no drug treated MT4 cell culture was assayed. Cell culture fluids was clarified at 1000 rpm for 10 minutes to remove cellular debris. The supernatant samples (20 μl) in duplicate transferred to 5 ml plastic Falcon tubes, 10 μl of virus solubilization buffer [0.5% Triton X-100 in 0.8 M NaCl, 0.5 mM phenylmethysulfonyfluoride, 20% (v/v) glycerol and 50 mM Tris-HCl, pH 7.8] were then added to solubilize the viral particles in the supernatant samples and to release RT located in the viral core. 170 μl of reaction mixture (cocktail I) [52 mM Tris-HCl (pH 7.8), 10 mM MgCl2, 2 mM dithiothreitol, 5 μg of poly(rA)-oligo(dT)per ml. 83 μg of dATP per ml, and 3 μCi of [^3 H]TTP per ml] was then added and incubated at 37° C. for 2 hr. The incorporation of [^3 H]TTP into DNA with poly(rA)-olgio(dT) template primer by viral RT was assessed by trichloroacetic (TCA) precipitation and filtered over a […] diameter glass fiber filter. […] of cold 10% TCA was added to precipitate DNA. The precipitate DNA was then collected on the filters in a Millipore sampling manifold, and was washed with additional 5 volumes of 5% TCA and 2 volumes of 70% ethanol. Radioactivity of the DNA on the filters was determined by a scintillation counter.

HBV DNA replication = conditions: FIG. 1; 15.625-250 ug/ml
Description: Hep G2 2.2.15 cell lines were maintained in DMEM supplemented with 10% fetal calf serum (FCS) and 100 units.ml^-1 of penicillin and streptomycin, 380 μg.ml^-1 of G418 in a humidified atmosphere containing 5% CO2 at 37° C. The cultures were passenged by trypsinization every 4 days. For bioassays cells were plated in 24-well plates at a density of 1.0×10^5 cells/well. Two-day-old cultures were treated with various concentrations of drug in DMEM containing 10 FCS. The drug was left in the medium for 4 days, and then the medium was aspirated and the fresh medium containing the same concentration of drug was added. At the end of three 4-day periods, the cells were harvested. The aliquot of the culture medium was used for the estimation of the HBV surface antigen (HBsAg) and HBV e antigen (HBeAg).
DNA extraction in 2.2.15 cells: Total DNA was isolated from 2.2.15 cells, cells was washed in PBS and lysed in a solution containing 50 mmol.l^-1 Tris-HCl (pH 7.5). 10 mmol.l^-1 EDTA. 1% SDS and 50 μg.ml^-1 of proteinase K (Sigma). After incubation at 37° C. for 4 h, total DNA was extracted in phenol-chloroform-isoamyl alcohol (25:24:1) followed by two extractions with chloroform-isoamyl alcohol. The DNA was precipitated with 1/10 vol NaOAc and 2.5 vol ethanol overnight at -70° C. […]

DHBV = experiment: anti-DHBV test in ducks (serum DHBV DNA dot blot); type: in vivo, DHBV in Peking (Beijing) ducks
Description: One-day-old ducklings were infected with a 200 μl intravenous injection of DHBV-positive serum containing 10^11 viral genome equivalents per milliliter. Treatment began when ducklings were 7 days old. A total 89 seven-day-old viraemic ducks were distributed at random into five groups. […] Post-treatment follow-up was carried over a period of 5 days. Blood samples were obtained repectively from the leg vein of all ducks and stored at -70° C. after serum separation, prior to treatment, weekly during the treatment, and for 5 days after cessation of treatment. They were screened for presence of DHBV DNA by dot blot hybridization.
DHBV DNA in serum was analyzed by molecular hybridization using full length DHBV DNA clones in PB325. The DHBV DNA insert was purified by agarose gel electrophoresis after digestion with EcoRI. The DHBV DNA was radiolabeled with α^32 P-dCTP random oligopriming with Klenow fragment. Dot blot hybridization was carried out by the method of Scotto et al. Briefly, an aliquot (200 μl) serum was spotted onto a nylon membrane (Hybond-N, Amersham International, England) in dot blot manifold and denatured with 0.5 M NaOH--NaCl at room temperature for 30 min. Each spotted sample was neutralized in 1M Tris.HCl-1.5M NaCl (pH8.0). The DNA on the membrane was fixed by heating at 80° C. for 2 h, and prehybridization at 37° C. overnight in 50% formamide, 5×Denhardt's, 6×SSC,[…], 0.5% SDS and 10 mg/ml of calf thymus DNA. Hybridization was initiated by adding DHBV [^32 P] DNA probes at 10^6 cpm/ml at the same prehybridization conditions overnight. The membrane was washed in 3×SSC-0.1% SDS at room temperature, 42° C. and 65° C. for 10 min respectively. After hybridization the membranes were air-dried and exposed for periods of up to 14 days at -70° C. with Kodak film with an enhancer screen. The amount of viral DNA were assayed by both densitometry and image analysis of autoradiographic membranes.

Hep G2 cell lines = experiment: Cytotoxicity in Hep G2 cell lines; type: cell-based; conditions: 1.0 μg.ml^-1
Description: The viability of cells was determined by MTT.

O=C(/C=C/c1ccc(O)c(O)c1)OC1CC(OC(=O)/C=C/c2ccc(O)c(O)c2)(C(=O)O)CC(O)C1O (stereo not drawn) [Compound A, 1,5-di-O-caffeoylquinic acid]
inhibition at 1.56 µg/mL (HIV-1; read-out: Inhibit rate (%), 1.56 μg/ml, 1000 TCID50 (first column pair), 7 days): 7.2%
inhibition at 1.56 µg/mL (HIV-1; read-out: Inhibit rate (%), 1.56 μg/ml, 1000 TCID50 (second column pair), 7 days): 8.1%
inhibition at 3.12 µg/mL (HIV-1; read-out: Inhibit rate (%), 3.12 μg/ml, 1000 TCID50 (first column pair), 7 days): 21.1%
inhibition at 3.12 µg/mL (HIV-1; read-out: Inhibit rate (%), 3.12 μg/ml, 1000 TCID50 (second column pair), 7 days): 19%
inhibition at 6.25 µg/mL (HIV-1; read-out: Inhibit rate (%), 6.25 μg/ml, 1000 TCID50 (first column pair), 7 days): 40%
inhibition at 6.25 µg/mL (HIV-1; read-out: Inhibit rate (%), 6.25 μg/ml, 1000 TCID50 (second column pair), 7 days): 44.3%
inhibition at 12.5 µg/mL (HIV-1; read-out: Inhibit rate (%), 12.5 μg/ml, 1000 TCID50 (first column pair), 7 days): 55%
inhibition at 12.5 µg/mL (HIV-1; read-out: Inhibit rate (%), 12.5 μg/ml, 1000 TCID50 (second column pair), 7 days): 56.5%
inhibition at 25 µg/mL (HIV-1; read-out: Inhibit rate (%), 25 μg/ml, 1000 TCID50 (first column pair), 7 days): 69.9%
inhibition at 25 µg/mL (HIV-1; read-out: Inhibit rate (%), 25 μg/ml, 1000 TCID50 (second column pair), 7 days): 63.7%
inhibition at 50 µg/mL (HIV-1; read-out: Inhibit rate (%), 50 μg/ml, 1000 TCID50 (first column pair), 7 days): 74.8%
inhibition at 50 µg/mL (HIV-1; read-out: Inhibit rate (%), 50 μg/ml, 1000 TCID50 (second column pair), 7 days): 60.6%
inhibition at 100 µg/mL (HIV-1; read-out: Inhibit rate (%), 100 μg/ml, 1000 TCID50 (first column pair), 7 days): 61.5%
inhibition at 100 µg/mL (HIV-1; read-out: Inhibit rate (%), 100 μg/ml, 1000 TCID50 (second column pair), 7 days): 57.7%
IC50, RT in MT4 cells infected with HIV (HIV-1 RT): 17.1 µg/mL
Inhibitory rate(%) (HIV-1 RT; 1 μg/ml): 22.8 ± 1.9%
cpm (HIV-1 RT; 1 μg/ml): 6051 ± 91 cpm
Inhibitory rate(%) (HIV-1 RT; 10 μg/ml): 45.4 ± 0.8%
cpm (HIV-1 RT; 10 μg/ml): 4283 ± 89 cpm
Inhibitory rate(%) (HIV-1 RT; 100 μg/ml): 68.7 ± 0.5%
cpm (HIV-1 RT; 100 μg/ml): 2456 ± 54 cpm
Inhibitory rate(%) (HIV-1 RT; 1000 μg/ml): 80.5 ± 1.5%
cpm (HIV-1 RT; 1000 μg/ml): 1528 ± 89 cpm
inhibition of HBV DNA replication (HBV DNA replication): inhibit HBV DNA replication in a dose dependent manner
inhibition of DHBV DNA (DHBV; 50 mg.kg of body weight^-1.day^-1): strange inhibition of DHBV DNA
inhibition of viraemia (DHBV; 50 mg.kg of body weight^-1.day^-1, day 14): 87%
toxicity to Hep G2 cell lines (Hep G2 cell lines): did not show toxicity
